Values quoted from earlier work in patent US9650678B2, “Methods for identifying an increased risk of anthracycline-related cardiotoxicity” (CITY OF HOPE, priority 2012, dated 2017).

How the values were obtained:
[1] = factor that reflects the drug's cardiotoxic potential
patients = details: package insert, doxorubicin hydrochloride injection (Teva)
CBR1 = target: T1, CBR1 (Homo sapiens, UniProt P16152)
T1 sequence (P16152 1-277): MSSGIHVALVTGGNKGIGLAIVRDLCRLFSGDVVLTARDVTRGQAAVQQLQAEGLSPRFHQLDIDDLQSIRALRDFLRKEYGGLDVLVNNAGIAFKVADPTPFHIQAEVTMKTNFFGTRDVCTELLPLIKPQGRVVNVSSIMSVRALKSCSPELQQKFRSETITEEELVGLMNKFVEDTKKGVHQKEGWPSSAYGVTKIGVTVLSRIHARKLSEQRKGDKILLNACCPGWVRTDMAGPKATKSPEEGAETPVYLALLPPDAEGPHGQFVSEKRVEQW

synthesis of doxorubicinol, times faster (CBR3)	rate of doxorubicinol synthesis, fold higher (CBR1)	Structure (SMILES)	Conversion factor to Doxorubicin Isotoxic Dose [1]	total cumulative dose in excess of which risk of potentially fatal congestive heart failure increases rapidly (patients)
		COc1cccc2c1C(=O)c1c(O)c3c(c(O)c1C2=O)C[C@@](O)(C(C)=O)C[C@@H]3O[C@H]1C[C@H](N)[C@H](O)[C@H](C)O1 [Daunomycin]	0.833 (⅚)	
		COc1cccc2c1C(=O)c1c(O)c3c(c(O)c1C2=O)C[C@@](O)(C(=O)CO)C[C@@H]3O[C@H]1C[C@H](N)[C@H](O)[C@H](C)O1 [Doxorubicin]	1	greater than 400 mg/m^2
		COc1cccc2c1C(=O)c1c(O)c3c(c(O)c1C2=O)C[C@@](O)(C(=O)CO)C[C@@H]3O[C@H]1C[C@H](N)[C@@H](O)[C@H](C)O1 [Epirubicin]	0.67 (⅔)	
		CC(=O)[C@]1(O)Cc2c(O)c3c(c(O)c2[C@@H](O[C@H]2C[C@H](N)[C@H](O)[C@H](C)O2)C1)C(=O)c1ccccc1C3=O [Idarubicin]	5	
2.6 times	1.5 fold	COc1cccc2c1C(=O)c1c(O)c3c(c(O)c1C2=O)C[C@@](O)([C@@H](O)CO)C[C@@H]3O[C@H]1C[C@H](N)[C@H](O)[C@H](C)O1 [doxorubicinol]		
